Series [1] can be described thus: Purity by SE-UPLC (% HMW, % Main, % LMW) on storage. The format is physicochemical. To be noted: stress conditions (40° C. and 45° C.).
Description: To determine the effect of preservatives on high molecular weight (HMW) complex formation for different mAbs formulations, various antibodies were incubated at 40° C. over the course of 3 months with or without tested preservatives.
To determine the effect of preservatives on high molecular weight (HMW) complex formation for different mAbs formulations, various antibodies were incubated at 25° C. over the course of 6 months with or without tested preservatives.
A short description of series [2]: Overall storage stability of mAb formulations with preservatives. To be noted: all storage conditions.
Description: Storage stability of the Fc-containing proteins were assessed at various temperatures, as will be described in further detail, including at 5° C., 25° C., 40° C., and 45° C., to enable kinetic degradation profiling, if applicable.
The sample formulations with preservatives were compared to the control formulations without preservatives to evaluate the effect of preservatives on protein stability.
The nature of series [3]: Compatibility of preservatives with mAb formulations. Format: physicochemical. To be noted: preservative in mAb formulations, incompatibility seen as turbidity.

On to `OCc1ccccc1` [benzyl alcohol], for which the “mAb aggregation detected by SE-UPLC (in words)” value in series [1] was “higher mAb aggregation”.

Consider `Oc1ccccc1` [phenol], for which the “destabilizing effect of preservative on mAbs (in words)” value in series [2] is on record as “least destabilization effect”; in series [2] (listed as Phenol), “only minimal destabilizing effect”.

With `Cc1cccc(O)c1` [m-cresol], the “compatibility with the mAb formulations” value in series [3] is recorded as “not compatible”; in series [3] (listed as cresol) it was “incompatible”.
